ChEMBL document CHEMBL3352741, “Discovery of VU0431316: a negative allosteric modulator of mGlu5 with activity in a mouse model of anxiety” (Bioorg Med Chem Lett, 2014)
The source made the active and inactive calls. The calls are words filed in the database; no cut-off is given here.

Key:
[1] = molecular target: T1, Metabotropic glutamate receptor 5 (Rattus norvegicus, UniProt P31424); assay: Negative allosteric modulator activity at rat mGlu5 expressed in HEK293A cells assessed as reduction in glutamate-induced calcium mobilization; assay type: functional, cell-based, HEK293-A
[2] = molecular target: Metabotropic glutamate receptor 5 (Rattus norvegicus) (UniProt P31424); assay: Negative allosteric modulator activity at rat mGlu5 expressed in HEK293A cells assessed as reduction in 100 uM glutamate-induced calcium mobilization at 30 uM; assay type: functional, cell-based; conditions: HEK293-A
[3] = molecular target: T1, Metabotropic glutamate receptor 5; assay: Displacement of [3H]methoxyPEPy from rat mGlu5 expressed in HEK293A cells after 1 hr by scintillation counting method; assay type: cell-based, HEK293-A
[4] = molecular target: Metabotropic glutamate receptor 1 (Rattus norvegicus) (UniProt P23385); assay: Activity at rat mGlu1 expressed in HEK293 cells at 10 uM by calcium flux assay; assay type: functional, cell-based
[5] = molecular target: Metabotropic glutamate receptor 2 (Homo sapiens) (UniProt Q14416); assay: Activity at mGlu2 (unknown origin) expressed in HEK293-GIRK cells at 10 uM by thallium flux assay; assay type: cell-based
[6] = molecular target: Metabotropic glutamate receptor 3 (Homo sapiens) (UniProt Q14832); assay: Activity at mGlu3 (unknown origin) expressed in HEK293-GIRK cells at 10 uM by thallium flux assay; assay type: cell-based
[7] = molecular target: Metabotropic glutamate receptor 4 (Homo sapiens) (UniProt Q14833); assay: Activity at mGlu4 (unknown origin) expressed in HEK293-GIRK cells at 10 uM by thallium flux assay; assay type: cell-based
Cytochrome P450 3A4 = Cytochrome P450 3A4 (Homo sapiens, UniProt P08684); assay: Inhibition of CYP3A4 in pooled human liver microsomes in presence of NADPH; assay type: ADME
Cytochrome P450 2D6 = Cytochrome P450 2D6 (Homo sapiens, UniProt P10635); assay: Inhibition of CYP2D6 in pooled human liver microsomes in presence of NADPH; assay type: ADME
[8] = molecular target: Metabotropic glutamate receptor 6 (Homo sapiens) (UniProt O15303); assay: Activity at mGlu6 (unknown origin) expressed in HEK293-GIRK cells at 10 uM by thallium flux assay; assay type: cell-based
[9] = molecular target: Metabotropic glutamate receptor 7 (Homo sapiens) (UniProt Q14831); assay: Activity at mGlu7 (unknown origin) expressed in HEK293-GIRK cells at 10 uM by thallium flux assay; assay type: cell-based
[10] = molecular target: Metabotropic glutamate receptor 8 (Homo sapiens) (UniProt O00222); assay: Activity at mGlu8 (unknown origin) expressed in HEK293-GIRK cells at 10 uM by thallium flux assay; assay type: cell-based
[11] = molecular target: Metabotropic glutamate receptor 5 (Homo sapiens, UniProt P41594); assay: Negative allosteric modulator activity at human mGlu5 assessed as reduction in glutamate-induced calcium mobilization; assay type: functional
Plasma [12] = assay: Fraction unbound in rat plasma by equilibrium dialysis method; assay type: ADME, cell-free
Plasma [13] = assay: Fraction unbound in cynomolgus monkey plasma by equilibrium dialysis method; assay type: ADME, cell-free, Macaca fascicularis
Plasma [14] = assay: Fraction unbound in human plasma by equilibrium dialysis method; assay type: ADME, cell-free
Brain = assay: Fraction unbound in mouse brain homogenates by equilibrium dialysis method; assay type: ADME, tissue-based; conditions: brain homogenate
MDCK [15] = assay: Apparent permeability from apical to basolateral side in wild type MDCK cells; assay type: ADME, cell-based, Canis lupus familiaris; conditions: dog
MDCK [16] = assay: Apparent permeability from basolateral to apical side in wild type MDCK cells; assay type: ADME, cell-based, Canis lupus familiaris; conditions: dog
MDCK [17] = assay: Efflux ratio in wild type MDCK cells; assay type: ADME, cell-based, Canis lupus familiaris; conditions: dog
[18] = Apparent permeability from apical to basolateral side in human Caco2 cells; assay type: ADME, cell-based; conditions: caco-2
[19] = Apparent permeability from basolateral to apical side in human Caco2 cells; assay type: ADME, cell-based; conditions: caco-2
[20] = Efflux ratio in human Caco2 cells; assay type: ADME, cell-based; conditions: caco-2
Cytochrome P450 2C9 = Cytochrome P450 2C9 (Homo sapiens, UniProt P11712); assay: Inhibition of CYP2C9 in pooled human liver microsomes in presence of NADPH; assay type: ADME
Cytochrome P450 1A2 = molecular target: T2, Cytochrome P450 1A2 (Homo sapiens, UniProt P05177); assay: Inhibition of CYP1A2 in pooled human liver microsomes in presence of NADPH; assay type: ADME
T2 sequence (P05177 whole entry): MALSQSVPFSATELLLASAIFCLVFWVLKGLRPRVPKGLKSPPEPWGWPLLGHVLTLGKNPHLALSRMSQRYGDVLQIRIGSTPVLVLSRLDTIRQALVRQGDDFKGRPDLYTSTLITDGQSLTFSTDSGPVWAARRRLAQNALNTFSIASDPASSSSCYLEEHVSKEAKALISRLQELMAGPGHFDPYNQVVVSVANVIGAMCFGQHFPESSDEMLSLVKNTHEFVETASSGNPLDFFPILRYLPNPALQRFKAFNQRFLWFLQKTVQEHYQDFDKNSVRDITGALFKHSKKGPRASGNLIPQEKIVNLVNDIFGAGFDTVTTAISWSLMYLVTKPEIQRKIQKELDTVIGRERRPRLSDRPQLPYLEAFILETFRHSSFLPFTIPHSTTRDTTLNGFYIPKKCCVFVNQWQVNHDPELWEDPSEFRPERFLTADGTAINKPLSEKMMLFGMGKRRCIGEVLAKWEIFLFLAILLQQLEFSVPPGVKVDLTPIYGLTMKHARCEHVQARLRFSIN

[21] = Half life in Sprague-Dawley rat at 1 mg/kg, iv after 2 to 1440 mins by LC-MS/MS method; assay type: ADME, organism-based; design: dose 1 mg/kg, route intravenous; conditions: in vivo
[22] = Clearance in Sprague-Dawley rat at 1 mg/kg, iv after 2 to 1440 mins by LC-MS/MS method; assay type: ADME, organism-based; design: dose 1 mg/kg, route intravenous; conditions: in vivo
[23] = Volume of distribution at steady state in Sprague-Dawley rat at 1 mg/kg, iv after 2 to 1440 mins by LC-MS/MS method; assay type: ADME, organism-based; design: dose 1 mg/kg, route intravenous; conditions: in vivo, read-out: Vdss
[24] = AUC in Sprague-Dawley rat at 1 mg/kg, iv after 2 to 1440 mins by LC-MS/MS method; assay type: ADME, organism-based; design: dose 1 mg/kg, route intravenous; conditions: plasma
[25] = Cmax in Sprague-Dawley rat at 10 mg/kg, po administered as single dose after 15 to 1440 mins by LC-MS/MS method; assay type: ADME, organism-based; design: dose 10 mg/kg, route oral; conditions: in vivo
[26] = Tmax in Sprague-Dawley rat at 10 mg/kg, po administered as single dose after 15 to 1440 mins by LC-MS/MS method; assay type: ADME, organism-based; design: dose 10 mg/kg, route oral; conditions: in vivo
[27] = AUC in Sprague-Dawley rat at 10 mg/kg, po administered as single dose after 15 to 1440 mins by LC-MS/MS method; assay type: ADME, organism-based; design: dose 10 mg/kg, route oral; conditions: plasma
[28] = Oral bioavailability in Sprague-Dawley rat at 10 mg/kg administered as single dose after 15 to 1440 mins by LC-MS/MS method; assay type: ADME, organism-based; conditions: in vivo
[29] = Plasma concentration in Sprague-Dawley rat at 10 mg/kg, po administered as single dose after 60 mins by LC-MS/MS method; assay type: ADME, organism-based; design: dose 10 mg/kg, route oral
[30] = Drug level in Sprague-Dawley rat hepatic portal vein at 10 mg/kg, po administered as single dose after 60 mins by LC-MS/MS method; assay type: ADME, organism-based; design: dose 10 mg/kg, route oral; conditions: read-out: Drug uptake
[31] = Drug level in Sprague-Dawley rat brain at 10 mg/kg, po administered as single dose after 60 mins by LC-MS/MS method; assay type: ADME, organism-based; design: dose 10 mg/kg, route oral; conditions: read-out: Drug uptake
[32] = Ratio of drug level in brain to plasma in Sprague-Dawley rat at 10 mg/kg, po administered as single dose after 60 mins by LC-MS/MS method; assay type: ADME, organism-based; design: dose 10 mg/kg, route oral; conditions: read-out: BPR
Mus musculus = assay: In vivo mGlu5 negative allosteric modulator activity in Harlan CD1 mouse marble burying model of anxiety assessed as reduction in marble burying at => 10 mg/kg, ip dosed 15 mins before test; assay type: functional, organism-based; design: dose 10 mg/kg
[33] = Plasma concentration in Harlan CD1 mouse at 30 mg/kg, ip after 15 mins; assay type: ADME, organism-based; design: dose 30 mg/kg, route intraperitoneal
[34] = Plasma concentration in Harlan CD1 mouse at 30 mg/kg, ip after 30 mins; assay type: ADME, organism-based; design: dose 30 mg/kg, route intraperitoneal
[35] = Plasma concentration in Harlan CD1 mouse at 30 mg/kg, ip after 60 mins; assay type: ADME, organism-based; design: dose 30 mg/kg, route intraperitoneal
[36] = Drug level in Harlan CD1 mouse brain at 30 mg/kg, ip after 15 mins; assay type: ADME, organism-based; design: dose 30 mg/kg, route intraperitoneal; conditions: read-out: Drug uptake
[37] = Drug level in Harlan CD1 mouse brain at 30 mg/kg, ip after 30 mins; assay type: ADME, organism-based; design: dose 30 mg/kg, route intraperitoneal; conditions: read-out: Drug uptake
[38] = Drug level in Harlan CD1 mouse brain at 30 mg/kg, ip after 60 mins; assay type: ADME, organism-based; design: dose 30 mg/kg, route intraperitoneal; conditions: read-out: Drug uptake

Metabotropic glutamate receptor 5 (Rattus norvegicus), sequence (P31424 21-1203 limits assumed): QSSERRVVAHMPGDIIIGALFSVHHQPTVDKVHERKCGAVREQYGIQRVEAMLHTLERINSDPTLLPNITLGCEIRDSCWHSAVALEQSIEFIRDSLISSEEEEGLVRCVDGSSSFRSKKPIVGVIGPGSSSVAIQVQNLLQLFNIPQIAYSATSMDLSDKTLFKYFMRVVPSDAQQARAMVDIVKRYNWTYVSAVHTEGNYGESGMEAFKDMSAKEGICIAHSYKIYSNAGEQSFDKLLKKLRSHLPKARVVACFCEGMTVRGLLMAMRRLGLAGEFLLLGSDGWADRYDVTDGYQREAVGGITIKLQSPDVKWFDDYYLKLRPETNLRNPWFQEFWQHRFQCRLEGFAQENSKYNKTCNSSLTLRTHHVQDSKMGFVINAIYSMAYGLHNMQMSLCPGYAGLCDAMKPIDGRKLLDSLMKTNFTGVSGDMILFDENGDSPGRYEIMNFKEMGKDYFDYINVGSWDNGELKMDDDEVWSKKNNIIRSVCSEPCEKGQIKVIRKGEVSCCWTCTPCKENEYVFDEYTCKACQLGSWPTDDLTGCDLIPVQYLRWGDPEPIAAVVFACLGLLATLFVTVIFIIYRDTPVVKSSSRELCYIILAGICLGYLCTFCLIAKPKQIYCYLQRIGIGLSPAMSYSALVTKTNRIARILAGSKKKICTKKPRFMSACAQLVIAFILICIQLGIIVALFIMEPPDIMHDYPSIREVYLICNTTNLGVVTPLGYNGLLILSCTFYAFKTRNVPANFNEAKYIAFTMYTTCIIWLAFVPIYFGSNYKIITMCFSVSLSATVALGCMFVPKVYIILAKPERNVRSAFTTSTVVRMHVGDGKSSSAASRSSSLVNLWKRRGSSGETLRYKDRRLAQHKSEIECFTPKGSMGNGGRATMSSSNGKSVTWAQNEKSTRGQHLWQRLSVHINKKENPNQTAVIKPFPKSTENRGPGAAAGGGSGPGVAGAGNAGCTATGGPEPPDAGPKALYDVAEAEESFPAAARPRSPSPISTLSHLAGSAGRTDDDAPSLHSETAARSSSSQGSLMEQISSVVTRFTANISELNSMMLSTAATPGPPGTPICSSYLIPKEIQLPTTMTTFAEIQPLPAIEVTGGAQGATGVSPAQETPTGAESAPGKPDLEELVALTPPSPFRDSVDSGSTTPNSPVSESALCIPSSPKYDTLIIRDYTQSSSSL
T1 sequence (P31424 whole entry): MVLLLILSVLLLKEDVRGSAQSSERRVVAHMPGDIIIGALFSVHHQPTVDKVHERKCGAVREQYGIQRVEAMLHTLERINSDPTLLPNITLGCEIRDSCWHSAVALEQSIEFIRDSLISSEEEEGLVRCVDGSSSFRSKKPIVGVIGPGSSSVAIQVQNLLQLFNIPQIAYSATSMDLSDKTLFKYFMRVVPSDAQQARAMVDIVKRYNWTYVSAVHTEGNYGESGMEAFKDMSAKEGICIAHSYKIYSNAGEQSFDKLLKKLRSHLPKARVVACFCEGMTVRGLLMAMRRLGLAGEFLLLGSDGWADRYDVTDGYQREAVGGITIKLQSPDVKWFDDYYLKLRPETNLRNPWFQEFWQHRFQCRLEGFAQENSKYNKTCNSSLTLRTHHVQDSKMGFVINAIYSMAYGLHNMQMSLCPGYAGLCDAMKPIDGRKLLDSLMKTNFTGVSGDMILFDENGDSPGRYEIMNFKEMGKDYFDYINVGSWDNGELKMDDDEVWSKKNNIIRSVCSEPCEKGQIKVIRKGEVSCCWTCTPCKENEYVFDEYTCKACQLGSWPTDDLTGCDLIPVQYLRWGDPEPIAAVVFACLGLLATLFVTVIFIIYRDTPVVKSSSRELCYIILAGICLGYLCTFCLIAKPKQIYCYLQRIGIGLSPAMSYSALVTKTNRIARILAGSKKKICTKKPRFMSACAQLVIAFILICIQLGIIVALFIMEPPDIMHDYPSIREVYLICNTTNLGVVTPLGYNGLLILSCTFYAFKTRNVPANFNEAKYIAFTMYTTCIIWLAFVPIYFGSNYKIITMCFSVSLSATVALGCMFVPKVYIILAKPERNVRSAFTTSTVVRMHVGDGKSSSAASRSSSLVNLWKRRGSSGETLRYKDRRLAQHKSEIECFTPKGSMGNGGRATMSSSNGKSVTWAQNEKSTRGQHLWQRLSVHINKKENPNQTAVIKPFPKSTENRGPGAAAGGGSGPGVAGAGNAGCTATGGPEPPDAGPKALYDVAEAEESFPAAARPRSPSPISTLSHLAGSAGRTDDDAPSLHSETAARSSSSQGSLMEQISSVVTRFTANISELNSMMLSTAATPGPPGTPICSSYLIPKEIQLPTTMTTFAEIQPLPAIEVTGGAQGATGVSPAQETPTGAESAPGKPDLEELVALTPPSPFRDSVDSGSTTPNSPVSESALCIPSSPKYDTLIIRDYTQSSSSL
Metabotropic glutamate receptor 7 (Homo sapiens), sequence (Q14831 whole entry): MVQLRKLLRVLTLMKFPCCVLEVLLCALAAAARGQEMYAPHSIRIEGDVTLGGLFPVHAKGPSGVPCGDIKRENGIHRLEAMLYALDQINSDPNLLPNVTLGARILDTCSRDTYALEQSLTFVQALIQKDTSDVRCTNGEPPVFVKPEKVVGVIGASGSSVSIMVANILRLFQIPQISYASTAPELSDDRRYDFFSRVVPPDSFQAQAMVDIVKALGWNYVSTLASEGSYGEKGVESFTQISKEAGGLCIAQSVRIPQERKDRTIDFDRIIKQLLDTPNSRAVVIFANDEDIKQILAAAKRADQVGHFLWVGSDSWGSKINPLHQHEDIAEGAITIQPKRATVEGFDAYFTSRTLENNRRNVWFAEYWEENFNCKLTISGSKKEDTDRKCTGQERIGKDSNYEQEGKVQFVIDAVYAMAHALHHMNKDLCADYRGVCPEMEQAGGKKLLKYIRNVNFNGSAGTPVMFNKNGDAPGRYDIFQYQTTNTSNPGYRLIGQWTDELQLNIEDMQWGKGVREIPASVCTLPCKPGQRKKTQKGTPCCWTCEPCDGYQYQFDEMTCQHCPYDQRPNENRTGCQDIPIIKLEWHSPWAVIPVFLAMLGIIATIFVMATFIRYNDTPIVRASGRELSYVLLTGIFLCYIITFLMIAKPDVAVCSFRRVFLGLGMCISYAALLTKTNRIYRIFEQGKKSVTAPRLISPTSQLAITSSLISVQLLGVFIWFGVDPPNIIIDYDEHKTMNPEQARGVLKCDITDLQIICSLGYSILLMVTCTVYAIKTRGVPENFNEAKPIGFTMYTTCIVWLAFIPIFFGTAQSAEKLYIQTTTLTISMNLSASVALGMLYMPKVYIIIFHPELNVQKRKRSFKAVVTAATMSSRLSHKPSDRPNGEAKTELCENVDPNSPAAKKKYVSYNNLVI
Metabotropic glutamate receptor 5 (Homo sapiens, UniProt P41594), sequence (P41594 whole entry): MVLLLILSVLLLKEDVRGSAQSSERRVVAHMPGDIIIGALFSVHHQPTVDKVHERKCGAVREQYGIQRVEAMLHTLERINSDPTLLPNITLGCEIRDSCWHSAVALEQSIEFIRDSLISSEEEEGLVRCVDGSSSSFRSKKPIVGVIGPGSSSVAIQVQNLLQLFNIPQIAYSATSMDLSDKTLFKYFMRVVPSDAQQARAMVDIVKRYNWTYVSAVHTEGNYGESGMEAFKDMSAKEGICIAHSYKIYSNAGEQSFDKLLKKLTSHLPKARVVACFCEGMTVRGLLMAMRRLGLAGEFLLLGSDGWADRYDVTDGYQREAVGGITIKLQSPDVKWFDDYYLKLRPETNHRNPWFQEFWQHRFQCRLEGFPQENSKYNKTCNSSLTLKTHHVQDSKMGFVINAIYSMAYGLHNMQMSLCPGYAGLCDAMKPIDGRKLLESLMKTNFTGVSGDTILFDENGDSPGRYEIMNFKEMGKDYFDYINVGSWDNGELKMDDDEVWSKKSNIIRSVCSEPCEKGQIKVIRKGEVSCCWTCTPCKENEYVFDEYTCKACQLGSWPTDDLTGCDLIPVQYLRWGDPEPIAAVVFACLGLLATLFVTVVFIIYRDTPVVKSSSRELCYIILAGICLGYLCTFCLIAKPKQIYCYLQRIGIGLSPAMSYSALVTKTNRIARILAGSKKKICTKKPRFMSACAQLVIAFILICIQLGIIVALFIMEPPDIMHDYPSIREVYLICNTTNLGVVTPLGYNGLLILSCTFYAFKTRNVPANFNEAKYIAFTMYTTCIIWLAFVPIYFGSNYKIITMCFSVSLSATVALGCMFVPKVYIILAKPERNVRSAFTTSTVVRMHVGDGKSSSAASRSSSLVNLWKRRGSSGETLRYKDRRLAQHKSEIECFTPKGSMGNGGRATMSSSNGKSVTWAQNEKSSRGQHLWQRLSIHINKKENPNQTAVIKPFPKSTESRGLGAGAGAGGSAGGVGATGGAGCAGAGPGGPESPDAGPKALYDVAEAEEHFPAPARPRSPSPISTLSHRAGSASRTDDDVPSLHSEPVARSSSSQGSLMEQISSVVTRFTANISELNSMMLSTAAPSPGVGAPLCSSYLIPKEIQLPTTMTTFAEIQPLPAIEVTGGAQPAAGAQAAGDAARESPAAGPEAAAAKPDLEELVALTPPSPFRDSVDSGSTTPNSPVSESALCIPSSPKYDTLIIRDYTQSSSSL
Cytochrome P450 2D6, sequence (P10635 whole entry): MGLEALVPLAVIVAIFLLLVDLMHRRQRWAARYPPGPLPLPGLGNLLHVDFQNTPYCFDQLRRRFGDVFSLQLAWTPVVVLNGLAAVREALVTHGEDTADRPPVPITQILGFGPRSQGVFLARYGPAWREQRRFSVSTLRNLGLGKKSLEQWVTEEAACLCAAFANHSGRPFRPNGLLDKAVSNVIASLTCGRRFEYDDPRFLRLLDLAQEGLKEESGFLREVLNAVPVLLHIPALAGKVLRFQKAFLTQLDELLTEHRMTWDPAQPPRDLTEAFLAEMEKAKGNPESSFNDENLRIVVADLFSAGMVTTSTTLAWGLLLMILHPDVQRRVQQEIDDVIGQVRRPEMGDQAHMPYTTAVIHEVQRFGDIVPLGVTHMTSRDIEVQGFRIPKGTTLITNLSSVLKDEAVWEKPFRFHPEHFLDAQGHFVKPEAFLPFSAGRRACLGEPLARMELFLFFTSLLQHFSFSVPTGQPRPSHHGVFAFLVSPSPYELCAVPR

## O=C(Nc1cncc(Oc2cncc(F)c2)n1)c1cccc(F)c1
[1]
  IC50: 3820 nM
[2]
  %max: -0.4%

## O=C(Nc1cncc(Oc2cncc(F)c2)n1)c1cccnc1
[1]
  IC50: > 30000 nM

## Cc1cccc(C(=O)Nc2cncc(Oc3cncc(F)c3)n2)c1
[1]
  IC50: 199 nM
[2]
  %max: 2.1%

## O=C(Nc1cncc(Oc2cncnc2)n1)c1cc(Cl)ccn1
[1]
  IC50: 62.4 nM
[2]
  %max: 1.6%
[3]
  Ki: 37 nM
[4]
  Activity: inactive
[5]
  Activity: inactive
[6]
  Activity: inactive
[7]
  Activity: inactive
Cytochrome P450 3A4
  IC50: > 30000 nM
Cytochrome P450 2D6
  IC50: > 30000 nM
[8]
  Activity: inactive
[9]
  Activity: inactive
[10]
  Activity: inactive
[11]
  IC50: 85 nM
Plasma [12]
  Fu: 0.179
Plasma [13]
  Fu: 0.167
Plasma [14]
  Fu: 0.12
Brain
  Fu: 0.054
MDCK [15]
  Papp: 50.4 ×10⁻⁶ cm/s
MDCK [16]
  Papp: 45 ×10⁻⁶ cm/s
MDCK [17]
  Ratio: 0.89
[18]
  Papp: 66.8 ×10⁻⁶ cm/s
[19]
  Papp: 71.4 ×10⁻⁶ cm/s
[20]
  Ratio: 1.07
Cytochrome P450 2C9
  IC50: > 30000 nM
Cytochrome P450 1A2
  IC50: 600 nM
[21]
  half-life: 3.22 h
[22]
  clearance: 30.2 mL/min/kg
[23]
  Vd: 2.7 L/kg
[24]
  AUC: 1.73 µM·h
[25]
  Cmax: 1120 nM
[26]
  Tmax: 4 h
[27]
  AUC: 8.37 µM·h
[28]
  bioavailability: 48%
[29]
  concentration at 1 h: 920 nM
[30]
  concentration at 1 h: 1310 nM
[31]
  concentration at 1 h: 1450 nM
[32]
  Kp at 1 h: 1.6
Mus musculus
  Activity: Active
[33]
  concentration at 0.25 h: 3990 nM
[34]
  concentration at 0.5 h: 3000 nM
[35]
  concentration at 1 h: 1690 nM
[36]
  concentration at 0.25 h: 6210 nM
[37]
  concentration at 0.5 h: 3690 nM
[38]
  concentration at 1 h: 2800 nM

## O=C(Nc1cncc(Oc2cncnc2)n1)c1cscn1
[1]
  IC50: > 10000 nM
[2]
  %max: 35%

## Cc1cc(C(=O)Nc2cncc(Oc3cncc(F)c3)n2)cs1
[1]
  IC50: 990 nM
[2]
  %max: 1.1%

## O=C(Nc1cncc(Oc2cncc(F)c2)n1)c1cccs1
[1]
  IC50: 6370 nM
[2]
  %max: 7.8%

## O=C(Nc1cncc(Oc2cncnc2)n1)c1cccc(F)c1
[1]
  IC50: 5140 nM
[2]
  %max: 1.5%

## O=C(Nc1cncc(Oc2cccnc2)n1)c1cccc(Cl)c1
[1]
  IC50: 129 nM

## O=C(Nc1cncc(Oc2cncnc2)n1)c1cc(Br)ccn1
[1]
  IC50: 100 nM
[2]
  %max: 2.3%

## CN(C)c1cccc(C(=O)Nc2cncc(Oc3cncc(F)c3)n2)c1
[1]
  IC50: > 10000 nM
[2]
  %max: 52%

## O=C(Nc1cncc(Oc2cncc(F)c2)n1)c1cc(F)cc(F)c1
[1]
  IC50: > 30000 nM

## O=C(Nc1cncc(Oc2cncc(F)c2)n1)c1cc(Cl)ccc1F
[1]
  IC50: 894 nM
[2]
  %max: 1%

## O=C(Nc1cncc(Oc2cncc(F)c2)n1)c1cc(F)cc(Cl)c1
[1]
  IC50: > 10000 nM
[2]
  %max: 48%

## O=C(Nc1cncc(Oc2cncc(F)c2)n1)c1ccsc1
[2]
  %max: 0.1%

## O=C(Nc1cncc(Oc2cncc(F)c2)n1)c1cncs1
[1]
  IC50: > 30000 nM

## COc1cccc(C(=O)Nc2cncc(Oc3cncc(F)c3)n2)c1
[2]
  %max: -5.6%

## Cc1nc(C(=O)Nc2cncc(Oc3cncc(F)c3)n2)cs1
[2]
  %max: 19%

## Cc1cccc(C(=O)Nc2cncc(Oc3cncc(F)c3)n2)n1
[1]
  IC50: > 30000 nM

## O=C(Nc1ccnc(Oc2cccnc2)c1)c1cccc(Cl)c1
[1]
  IC50: 3700 nM

## Cc1ccnc(C(=O)Nc2cncc(Oc3cncnc3)n2)c1
[1]
  IC50: 193 nM
[2]
  %max: 2.1%

## Cc1cc(C)cc(C(=O)Nc2cncc(Oc3cncc(F)c3)n2)c1
[2]
  %max: 6.6%
